In patent US10485235B2, “Aryloxypyrimidinyl ethers as herbicides” (FMC Corporation, priority 2015, dated 2019):

system: barnyardgrass (Echinochloa crus-galli); assay: Test A preemergence, barnyardgrass; format: in vivo; details: Echinochloa crus-galli, pre-emergence, 240 h; Preemergence, 125 g ai/ha; 0 to 100 scale (0 no effect, 100 complete control); read-out: Plant response rating, Barnyardgrass
Outline: (§1)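 Scores (0 no effect to 100 complete control) come from visual comparison of treated and untreated plants kept about 10 days in a greenhouse. Growth medium was a loam/sand blend; preemergence treatment was a directed soil spray, postemergence treatment went onto plants at the 1–2 leaf stage.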

| SMILES | pest or weed control at 125 g/ha [%] |
| --- | --- |
| Fc1cccc(Oc2ncc(Cl)cn2)c1OCC(F)(F)F [Compound 28] | 10 |

same assay, conditions: Echinochloa crus-galli, pre-emergence, 240 h; Preemergence, 500 g ai/ha; 0 to 100 scale (0 no effect, 100 complete control); read-out: Plant response rating, Barnyardgrass

| SMILES | pest or weed control at 500 g/ha [%] |
| --- | --- |
| Fc1cccc(Oc2ncc(Cl)cn2)c1OCC(F)(F)F [Compound 28] | 70 |

system: wheat (Triticum aestivum); assay: Test A postemergence, wheat; format: in vivo; details: Triticum aestivum, post-emergence, 240 h; 125 g ai/ha, postemergence; 0 to 100 scale, 0 is no effect, 100 is complete control; approximately 10 days; read-out: Plant response rating, Wheat
Outline: as §1

| SMILES | plant injury at 125 g/ha [%] |
| --- | --- |
| Fc1cccc(Oc2ncc(Cl)cn2)c1OCC(F)(F)F [Compound 28] | 0 |

same assay, conditions: Triticum aestivum, post-emergence, 240 h; 500 g ai/ha, postemergence; 0 to 100 scale, 0 is no effect, 100 is complete control; approximately 10 days; read-out: Plant response rating, Wheat

| SMILES | plant injury at 500 g/ha [%] |
| --- | --- |
| Fc1cccc(Oc2ncc(Cl)cn2)c1OCC(F)(F)F [Compound 28] | 0 |

system: blackgrass (Alopecurus myosuroides); assay: Test A postemergence, blackgrass; format: in vivo; details: Alopecurus myosuroides, post-emergence, 240 h; 125 g ai/ha, postemergence; 0 to 100 scale, 0 is no effect, 100 is complete control; approximately 10 days; read-out: Plant response rating, Blackgrass
Outline: as §1

| SMILES | pest or weed control at 125 g/ha [%] |
| --- | --- |
| Fc1cccc(Oc2ncc(Cl)cn2)c1OCC(F)(F)F [Compound 28] | 0 |

same assay, conditions: Alopecurus myosuroides, post-emergence, 240 h; 500 g ai/ha, postemergence; 0 to 100 scale, 0 is no effect, 100 is complete control; approximately 10 days; read-out: Plant response rating, Blackgrass

| SMILES | pest or weed control at 500 g/ha [%] |
| --- | --- |
| Fc1cccc(Oc2ncc(Cl)cn2)c1OCC(F)(F)F [Compound 28] | 20 |

system: corn (Zea mays); assay: Test A postemergence, corn; format: in vivo; details: Zea mays, post-emergence, 240 h; 125 g ai/ha, postemergence; 0 to 100 scale, 0 is no effect, 100 is complete control; approximately 10 days
Outline: as §1

| SMILES | Corn plant response rating (crop injury, 0 = no effect, 100 = complete kill) at 125 g/ha [%] |
| --- | --- |
| Fc1cccc(Oc2ncc(Cl)cn2)c1OCC(F)(F)F [Compound 28] | 0 |

same assay, conditions: Zea mays, post-emergence, 240 h; 500 g ai/ha, postemergence; 0 to 100 scale, 0 is no effect, 100 is complete control; approximately 10 days

| SMILES | Corn plant response rating (crop injury, 0 = no effect, 100 = complete kill) at 500 g/ha [%] |
| --- | --- |
| Fc1cccc(Oc2ncc(Cl)cn2)c1OCC(F)(F)F [Compound 28] | 10 |

system: ragweed (common ragweed, Ambrosia elatior); assay: Test A preemergence, ragweed; format: in vivo; details: Ambrosia artemisiifolia, pre-emergence, 240 h; Preemergence, 125 g ai/ha; 0 to 100 scale (0 no effect, 100 complete control); read-out: Plant response rating, Ragweed
Outline: as §1

| SMILES | pest or weed control at 125 g/ha [%] |
| --- | --- |
| Fc1cccc(Oc2ncc(Cl)cn2)c1OCC(F)(F)F [Compound 28] | 0 |

same assay, conditions: Ambrosia artemisiifolia, pre-emergence, 240 h; Preemergence, 500 g ai/ha; 0 to 100 scale (0 no effect, 100 complete control); read-out: Plant response rating, Ragweed

| SMILES | pest or weed control at 500 g/ha [%] |
| --- | --- |
| Fc1cccc(Oc2ncc(Cl)cn2)c1OCC(F)(F)F [Compound 28] | 0 |

system: pigweed (Amaranthus retroflexus); assay: Test A postemergence, pigweed; format: in vivo; details: Amaranthus retroflexus, post-emergence, 240 h; 125 g ai/ha, postemergence; 0 to 100 scale, 0 is no effect, 100 is complete control; approximately 10 days; read-out: Plant response rating, Pigweed
Outline: as §1

| SMILES | pest or weed control at 125 g/ha [%] |
| --- | --- |
| Fc1cccc(Oc2ncc(Cl)cn2)c1OCC(F)(F)F [Compound 28] | 30 |

same assay, conditions: Amaranthus retroflexus, post-emergence, 240 h; 500 g ai/ha, postemergence; 0 to 100 scale, 0 is no effect, 100 is complete control; approximately 10 days; read-out: Plant response rating, Pigweed

| SMILES | pest or weed control at 500 g/ha [%] |
| --- | --- |
| Fc1cccc(Oc2ncc(Cl)cn2)c1OCC(F)(F)F [Compound 28] | 70 |

system: foxtail, giant (giant foxtail, Setaria faberii); assay: Test A preemergence, giant foxtail; format: in vivo; details: Setaria faberi, pre-emergence, 240 h; Preemergence, 125 g ai/ha; 0 to 100 scale (0 no effect, 100 complete control); read-out: Plant response rating, Foxtail, Giant
Outline: as §1

| SMILES | pest or weed control at 125 g/ha [%] |
| --- | --- |
| Fc1cccc(Oc2ncc(Cl)cn2)c1OCC(F)(F)F [Compound 28] | 0 |

same assay, conditions: Setaria faberi, pre-emergence, 240 h; Preemergence, 500 g ai/ha; 0 to 100 scale (0 no effect, 100 complete control); read-out: Plant response rating, Foxtail, Giant

| SMILES | pest or weed control at 500 g/ha [%] |
| --- | --- |
| Fc1cccc(Oc2ncc(Cl)cn2)c1OCC(F)(F)F [Compound 28] | 70 |

system: barnyardgrass (Echinochloa crus-galli); assay: Test B flooded paddy test, barnyardgrass; format: in vivo; details: Echinochloa crus-galli; 250 g ai/ha, Flood; visual rating after 13 to 15 days; scale 0 to 100, 0 is no effect, 100 is complete control; read-out: Plant response rating, Barnyardgrass
Outline: (§2)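 Visual injury scored 0 (no effect) to 100 (complete control) relative to controls 13-15 days after treatment in greenhouse. Treatment: test compound added into paddy water of pots flooded 3 cm over soil, holding 2-leaf-stage plants; water level kept constant.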

| SMILES | pest or weed control at 250 g/ha [%] |
| --- | --- |
| Fc1cccc(Oc2ncc(Cl)cn2)c1OCC(F)(F)F [Compound 28] | 0 |

system: sedge, umbrella (small-flower umbrella sedge, Cyperus difformis); assay: Test B flooded paddy test, umbrella sedge; format: in vivo; details: Cyperus difformis; 250 g ai/ha, Flood; visual rating after 13 to 15 days; scale 0 to 100, 0 is no effect, 100 is complete control; read-out: Plant response rating, Sedge, Umbrella
Outline: as §2

| SMILES | pest or weed control at 250 g/ha [%] |
| --- | --- |
| Fc1cccc(Oc2ncc(Cl)cn2)c1OCC(F)(F)F [Compound 28] | 0 |

system: rice (Oryza sativa); assay: Test B flooded paddy test, rice; format: in vivo; details: Oryza sativa; 250 g ai/ha, Flood; visual rating after 13 to 15 days; scale 0 to 100, 0 is no effect, 100 is complete control; read-out: Plant response rating, Rice
Outline: as §2

| SMILES | plant injury at 250 g/ha [%] |
| --- | --- |
| Fc1cccc(Oc2ncc(Cl)cn2)c1OCC(F)(F)F [Compound 28] | 0 |

system: pigweed (Amaranthus retroflexus); assay: Test A preemergence, pigweed; format: in vivo; details: Amaranthus retroflexus, pre-emergence, 240 h; Preemergence, 125 g ai/ha; 0 to 100 scale (0 no effect, 100 complete control); read-out: Plant response rating, Pigweed
Outline: as §1

| SMILES | pest or weed control at 125 g/ha [%] |
| --- | --- |
| Fc1cccc(Oc2ncc(Cl)cn2)c1OCC(F)(F)F [Compound 28] | 0 |

same assay, conditions: Amaranthus retroflexus, pre-emergence, 240 h; Preemergence, 500 g ai/ha; 0 to 100 scale (0 no effect, 100 complete control); read-out: Plant response rating, Pigweed

| SMILES | pest or weed control at 500 g/ha [%] |
| --- | --- |
| Fc1cccc(Oc2ncc(Cl)cn2)c1OCC(F)(F)F [Compound 28] | 100 |

system: ragweed (common ragweed, Ambrosia elatior); assay: Test A postemergence, ragweed; format: in vivo; details: Ambrosia artemisiifolia, post-emergence, 240 h; 125 g ai/ha, postemergence; 0 to 100 scale, 0 is no effect, 100 is complete control; approximately 10 days; read-out: Plant response rating, Ragweed
Outline: as §1

| SMILES | pest or weed control at 125 g/ha [%] |
| --- | --- |
| Fc1cccc(Oc2ncc(Cl)cn2)c1OCC(F)(F)F [Compound 28] | 0 |

same assay, conditions: Ambrosia artemisiifolia, post-emergence, 240 h; 500 g ai/ha, postemergence; 0 to 100 scale, 0 is no effect, 100 is complete control; approximately 10 days; read-out: Plant response rating, Ragweed

| SMILES | pest or weed control at 500 g/ha [%] |
| --- | --- |
| Fc1cccc(Oc2ncc(Cl)cn2)c1OCC(F)(F)F [Compound 28] | 0 |

system: ryegrass, Italian (Italian ryegrass, Lolium multiflorum); assay: Test A preemergence, Italian ryegrass; format: in vivo; details: Lolium multiflorum, pre-emergence, 240 h; Preemergence, 125 g ai/ha; 0 to 100 scale (0 no effect, 100 complete control); read-out: Plant response rating, Ryegrass, Italian
Outline: as §1

| SMILES | pest or weed control at 125 g/ha [%] |
| --- | --- |
| Fc1cccc(Oc2ncc(Cl)cn2)c1OCC(F)(F)F [Compound 28] | 0 |

same assay, conditions: Lolium multiflorum, pre-emergence, 240 h; Preemergence, 500 g ai/ha; 0 to 100 scale (0 no effect, 100 complete control); read-out: Plant response rating, Ryegrass, Italian

| SMILES | pest or weed control at 500 g/ha [%] |
| --- | --- |
| Fc1cccc(Oc2ncc(Cl)cn2)c1OCC(F)(F)F [Compound 28] | 20 |

system: kochia (Kochia scoparia); assay: Test A preemergence, kochia; format: in vivo; details: Bassia scoparia, pre-emergence, 240 h; Preemergence, 125 g ai/ha; 0 to 100 scale (0 no effect, 100 complete control); read-out: Plant response rating, Kochia
Outline: as §1

| SMILES | pest or weed control at 125 g/ha [%] |
| --- | --- |
| Fc1cccc(Oc2ncc(Cl)cn2)c1OCC(F)(F)F [Compound 28] | 0 |

same assay, conditions: Bassia scoparia, pre-emergence, 240 h; Preemergence, 500 g ai/ha; 0 to 100 scale (0 no effect, 100 complete control); read-out: Plant response rating, Kochia

| SMILES | pest or weed control at 500 g/ha [%] |
| --- | --- |
| Fc1cccc(Oc2ncc(Cl)cn2)c1OCC(F)(F)F [Compound 28] | 20 |

system: ducksalad (Heteranthera limosa); assay: Test B flooded paddy test, ducksalad; format: in vivo; details: Heteranthera limosa; 250 g ai/ha, Flood; visual rating after 13 to 15 days; scale 0 to 100, 0 is no effect, 100 is complete control; read-out: Plant response rating, Ducksalad
Outline: as §2

| SMILES | pest or weed control at 250 g/ha [%] |
| --- | --- |
| Fc1cccc(Oc2ncc(Cl)cn2)c1OCC(F)(F)F [Compound 28] | 30 |
